Laboratory results taken from the NIST ThermoML archive (doi:10.1021/je060390q).

How the values were obtained:
[1] = Maximal bubble pressure
[2] = xn = mol fraction of the nth substance listed; conditions: Maximal bubble pressure

Cc1ccccc1C [1,2-dimethylbenzene]
[1]
Conditions	surface tension liquid-gas [mN/m]
303.15 K	28.98
308.15 K	28.43
313.15 K	27.88
318.15 K	27.33
323.15 K	26.78
333.15 K	25.68
343.15 K	24.58

Cc1ccccc1C [1,2-dimethylbenzene] + CC(=O)O
surface tension liquid-gas [mN/m], [2]
Conditions	x2 = 0	x2 = 0.1001	x2 = 0.2001	x2 = 0.3002	x2 = 0.4	x2 = 0.5	x2 = 0.6213	x2 = 0.7001	x2 = 0.8	x2 = 0.9
303.15 K	28.98	28.81	28.56	28.32	28.07	27.81	27.5	27.29	27.03	26.74
308.15 K	28.43	28.26	28.03	27.78	27.54	27.29	26.98	26.78	26.5	26.24
313.15 K	27.88	27.71	27.49	27.25	27.01	26.77	26.47	26.26	25.99	25.74
318.15 K	27.33	27.17	26.94	26.7	26.47	26.23	25.94	25.74	25.48	25.22
323.15 K	26.78	26.62	26.4	26.17	25.95	25.71	25.42	25.22	24.97	24.72
333.15 K	25.68	25.54	25.32	25.11	24.89	24.67	24.4	24.2	23.97	23.73
343.15 K	24.58	24.45	24.24	24.04	23.84	23.63	23.37	23.18	22.95	22.73

Cc1cccc(C)c1 [1,3-dimethylbenzene]
[1]
Conditions	surface tension liquid-gas [mN/m]
303.15 K	27.58
308.15 K	27.04
313.15 K	26.49
318.15 K	25.94
323.15 K	25.38
333.15 K	24.27
343.15 K	23.18

Cc1cccc(C)c1 [1,3-dimethylbenzene] + CC(=O)O
surface tension liquid-gas [mN/m], [2]
Conditions	x2 = 0	x2 = 0.1001	x2 = 0.2001	x2 = 0.3	x2 = 0.4188	x2 = 0.4999	x2 = 0.5999	x2 = 0.7018	x2 = 0.7999	x2 = 0.9
303.15 K	27.58	27.51	27.4	27.3	27.17	27.07	26.95	26.87	26.71	26.56
308.15 K	27.04	26.97	26.87	26.77	26.63	26.55	26.47	26.36	26.19	26.06
313.15 K	26.49	26.42	26.33	26.24	26.1	26.03	25.95	25.84	25.68	25.56
318.15 K	25.94	25.88	25.78	25.69	25.58	25.5	25.42	25.32	25.17	25.04
323.15 K	25.38	25.32	25.24	25.15	25.04	24.98	24.9	24.76	24.65	24.55
333.15 K	24.27	24.23	24.16	24.08	23.98	23.92	23.85	23.74	23.65	23.55
343.15 K	23.18	23.15	23.08	23.02	22.93	22.88	22.82	22.72	22.63	22.55

CC(=O)O [acetic acid]
[1]
Conditions	surface tension liquid-gas [mN/m]
303.15 K	26.4
308.15 K	25.91
313.15 K	25.41
318.15 K	24.91
323.15 K	24.42
333.15 K	23.44
343.15 K	22.45

CC(=O)O [acetic acid] + Cc1cccc(C)c1
[2], x1 = 1
Conditions	surface tension liquid-gas [mN/m]
303.15 K	26.4
308.15 K	25.91
313.15 K	25.41
318.15 K	24.91
323.15 K	24.42
333.15 K	23.44
343.15 K	22.45

CC(=O)O [acetic acid] + Cc1ccccc1C
[2], x1 = 1
Conditions	surface tension liquid-gas [mN/m]
303.15 K	26.4
308.15 K	25.91
313.15 K	25.41
318.15 K	24.91
323.15 K	24.42
333.15 K	23.44
343.15 K	22.45
